# US20240208912A1 (Mirati Therapeutics, Inc., priority 2021, published 2024)
# Like-named read-outs stand apart in the source and are kept apart here.
# Assays:
# [1] = tested on: HCT116 homozygous MTAP knockout cells; experiment: Proliferation assay (CellTiter-Glo, 10 days) in HCT116 homozygous MTAP knockout cells; type: cell-based; conditions: CellTiter-Glo after 10 days of treatment, read-out: Proliferation IC50 (nM) HCT116 MTAP_KO
# Procedure, shortened: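 MTAP-null HCT116 clone made by CRISPR/Cas9 knockout of both alleles, tested beside parental cells. Cells dosed the day after seeding, split 1:10 on day 6 into fresh medium with the same compound level, and read on day 11 by CellTiter-Glo. IC50 taken after 10 days of exposure.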
# [2] = tested on: PRMT5-dependent Symmetric Di-methyl Arginine signal in HCT116 homozygous MTAP Knockout cells; experiment: SYM11 In-Cell Western in HCT116 homozygous MTAP knockout cells; type: cell-based
# Description: HCT116 cells were genetically engineered to knock out the function of both MTAP alleles using a CRISPR/Cas9 system and an sgRNA targeting the MTAP gene. Following Cas9/MTAP sgRNA transduction, clones were screened to confirm that each allele of the MTAP gene had been inactivated (i.e., homozygous MTAP knock out) creating an MTAP-deficient cell.
# Control samples were analyzed in parallel.
# Briefly, on Day 0, 2,000 HCT116 parental or HCT116 homozygous MTAP knockout cells were seeded in 96 well plates in McCoy's 5A supplemented with 10% fetal bovine serum and pen/strep and the cells were incubated overnight at 37° C. plus 5% CO2. The following day, cells were treated with DMSO vehicle control or a dose response of PRMT5 inhibitors, and incubated at 37° C. plus 5% CO^2 for four days.
# After 4 days of treatment, the cells were fixed by adding 50 μl of 4% paraformaldehyde solution to each well and the cells were incubated for 20 min at room temperature. The paraformaldehyde solution was removed, 150 μl of ice-cold methanol was added and the plate was placed −20° C. for 10 minutes. The methanol was removed, 150 μl of Odyssey Blocking buffer+0.05% Tween20 was added and the plate was incubated at room temperature with shaking for one hour.
# The primary SYM11 antibody solution was removed by aspiration and the wells were washed three consecutive times with phosphate buffered saline containing 0.1% Tween-20 (PBST).
# The secondary antibody solution was removed by aspiration and the wells were washed three consecutive times with PBST.
# The SYM11 signal and the DRAQ5 signal were quantified using a Li-Cor Odyssey machine reading at […], respectively. The SYM11/DRAQ5 ratio was used to calculate the inhibition of Symmetric Dimethyl Arginine as percent of DMSO control.
# PRMT5/MEP50 complex = biological target: T1, PRMT5/MEP50 complex (Homo sapiens, UniProt O14744); experiment: PRMT5:MEP50 HotSpot Assay (full-length histone H2A substrate, plus and minus MTA); type: biochemical; conditions: IC50 + 2 μM MTA, in the presence of 2 μM MTA
# T1 construct: purchased Reaction Biology Corporation
# T1 sequence (O14744 2-637 limits assumed): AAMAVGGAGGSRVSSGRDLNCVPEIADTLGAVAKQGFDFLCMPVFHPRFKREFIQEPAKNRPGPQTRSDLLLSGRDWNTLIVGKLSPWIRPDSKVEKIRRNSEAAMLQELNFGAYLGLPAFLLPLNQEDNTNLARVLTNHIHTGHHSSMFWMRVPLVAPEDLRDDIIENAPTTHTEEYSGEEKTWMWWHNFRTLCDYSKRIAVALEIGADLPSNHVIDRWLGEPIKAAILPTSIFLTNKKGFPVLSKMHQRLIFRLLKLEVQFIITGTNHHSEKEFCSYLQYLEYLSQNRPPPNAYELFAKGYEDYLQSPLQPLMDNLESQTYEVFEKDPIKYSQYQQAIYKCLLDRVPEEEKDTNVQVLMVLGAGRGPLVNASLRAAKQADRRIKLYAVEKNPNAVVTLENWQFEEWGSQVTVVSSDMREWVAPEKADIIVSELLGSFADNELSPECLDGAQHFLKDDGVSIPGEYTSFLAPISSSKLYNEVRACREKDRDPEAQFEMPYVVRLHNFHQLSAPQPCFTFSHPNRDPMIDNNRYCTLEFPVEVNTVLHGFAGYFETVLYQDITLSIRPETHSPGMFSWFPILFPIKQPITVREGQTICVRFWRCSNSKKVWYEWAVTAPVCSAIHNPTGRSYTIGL
# T1 sequence (Q9BQA1 2-342 partner limits assumed): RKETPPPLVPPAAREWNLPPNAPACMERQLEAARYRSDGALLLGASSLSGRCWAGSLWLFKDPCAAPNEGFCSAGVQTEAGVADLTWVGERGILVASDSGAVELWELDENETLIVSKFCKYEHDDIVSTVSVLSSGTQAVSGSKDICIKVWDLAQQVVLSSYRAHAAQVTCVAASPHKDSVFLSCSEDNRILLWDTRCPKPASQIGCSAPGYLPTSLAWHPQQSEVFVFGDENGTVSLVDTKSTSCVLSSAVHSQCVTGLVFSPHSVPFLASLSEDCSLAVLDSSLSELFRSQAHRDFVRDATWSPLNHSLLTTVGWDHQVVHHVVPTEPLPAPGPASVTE
# Procedure, shortened: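 Radiometric HotSpot format using recombinant full-length histone H2A as substrate, run with and without MTA. Reactions were stopped and spotted onto filter paper. Tritiated H2A was quantified by scintillation counting.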
# [3] = 4 days of treatment, SYM11/DRAQ5 ratio as percent of DMSO control, read-out: In-cell-Western (SYM11) IC50 (nM) HCT116 MTAP_KO
# [4] = Homo sapiens, HCT-116, 96 h, 4 days of treatment, SYM11/DRAQ5 ratio as percent of DMSO control, read-out: In-cell-Western (SYM11) IC50 (nM) HCT116 MTAP_KO
# [5] = read-out: In-cell-Western (SYM11) IC50 (nM) HCT116 MTAP_KO, 4 days of treatment, SYM11/DRAQ5 ratio as percent of DMSO control
Structure (SMILES),"IC50 [2, 3]","IC50 [2, 4]","IC50 ([1]; Homo sapiens, HCT-116, 240 h)",other results
"Cc1cc(-c2cnn(C)c2-c2c(F)c(Cl)c3ccccc3c2C#N)cc2c(CN)n[nH]c(=O)c12 (atropisomer, axis not shown; (M)) [Example 16-18, (M)-2-[4-[4-(aminomethyl)-8-methyl-1-oxo-2H-phthalazin-6-yl]-2-methyl-pyrazol-3-yl]-4-chloro-3-fluoro-naphthalene-1-carbonitrile]",13 nM,–,–,IC50 [1]: 19 nM
"Cc1cc(-c2cnn(C)c2-c2c(F)c(Cl)c3ccccc3c2C#N)cc2c(CN)n[nH]c(=O)c12 (atropisomer, axis not shown; (P)) [Example 16-17, (P)-2-[4-[4-(aminomethyl)-8-methyl-1-oxo-2H-phthalazin-6-yl]-2-methyl-pyrazol-3-yl]-4-chloro-3-fluoro-naphthalene-1-carbonitrile]",129 nM,–,–,IC50 [1]: 285 nM
"Cc1ccc(-c2c(-c3ccc4c(=O)[nH]nc(CN)c4c3)cnn2C)c(C#N)c1 [Example 4-106, 2-(4-(4-(aminomethyl)-1-oxo-1,2-dihydrophthalazin-6-yl)-1-methyl-1H-pyrazol-5-yl)-5-methylbenzonitrile]",–,26 nM,–,–
"Cn1ncc(-c2ccc3c(=O)[nH]nc(CN)c3c2)c1-c1c(F)cc2ccccc2c1C#N [Example 4-203, 2-(4-(4-(aminomethyl)-1-oxo-1,2-dibydrophthalazin-6-yl)-1-methyl-1H-pyrazol-5-yl)-3-fluoro-1-naphthonitrile]",2 nM,–,–,–
"Cn1ncc(-c2ccc3c(=O)[nH]nc(CN)c3c2)c1-c1cc2ccccn2c1C#N [Example 4-256, 2-[4-[4-(aminomethyl)-1-oxo-2H-phthalazin-6-yl]-2-methyl-pyrazol-3-yl]indolizine-3-carbonitrile]",–,1000 nM,–,–
"Cn1ncc(-c2ccc3c(=O)[nH]nc(CN)c3c2)c1-c1ccc2ccc(Cl)cc2c1C#N [Example 4-258, 2-[4-[4-(aminomethyl)-1-oxo-2H-phthalazin-6-yl]-2-methyl-pyrazol-3-yl]-7-chloro-naphthalene-1-carbonitrile]",–,28 nM,89 nM,–
"Cn1ncc(-c2ccc3c(=O)[nH]nc(CN)c3c2)c1-c1c(Cl)cc2ccccc2c1Cl [Example 4-259, 4-(aminomethyl)-6-[5-(1,3-dichloro-2-naphthyl)-1-methyl-pyrazol-4-yl]-2H-phthalazin-1-one]",–,97 nM,837 nM,–
"Cn1ncc(-c2ccc3c(=O)[nH]nc(CN)c3c2)c1-c1ccc2ncc(F)cc2c1C#N [Example 4-264, 6-[4-[4-(aminomethyl)-1-oxo-2H-phthalazin-6-yl]-2-methyl-pyrazol-3-yl]-3-fluoro-quinoline-5-carbonitrile]",–,23 nM,83 nM,–
"Cn1ncc(-c2ccc3c(=O)[nH]nc(CN)c3c2)c1-c1cccc2cccc(C#N)c12 [Example 4-265, 8-[4-[4-(aminomethyl)-1-oxo-2H-phthalazin-6-yl]-2-methyl-pyrazol-3-yl]naphthalene-1-carbonitrile]",–,1000 nM,1650 nM,–
"Cn1ncc(-c2cc(Cl)c3c(=O)[nH]nc(CN)c3c2)c1-c1c(F)c(Cl)cc(OC2CC2)c1C#N [Example 10-25, 2-[4-[4-(aminomethyl)-8-chloro-1-oxo-2H-phthalazin-6-yl]-2-methyl-pyrazol-3-yl]-4-chloro-6-(cyclopropoxy)-3-fluoro-benzonitrile]",–,8 nM,30 nM,–
"Cc1cc(-c2cnn(C)c2-c2c(C#N)cc3ccccc3c2Cl)cc2c(CN)n[nH]c(=O)c12 [Example 10-26, 3-[4-[4-(aminomethyl)-8-methyl-1-oxo-2H-phthalazin-6-yl]-2-methyl-pyrazol-3-yl]-4-chloro-naphthalene-2-carbonitrile]",–,35 nM,83 nM,–
"Cn1ncc(-c2ccc3c(=O)[nH]nc(CN)c3c2)c1-c1c(F)c(Cl)cc(OC2CC2)c1C#N [Example 16-7, 2-(4-(4-(aminomethyl)-1-oxo-1,2-dihydrophthalazin-6-yl)-1-methyl-1H-pyrazol-5-yl)-4-chloro-6-cyclopropoxy-3-fluorobenzonitrile]",–,–,–,"IC50 [2, 5]: 1000 nM"
"Cn1ncc(-c2ccc3c(=O)[nH]nc(CN)c3c2)c1-c1c(F)c(Cl)cc(OC2CC2)c1C#N [Example 16-8, 2-(4-(4-(aminomethyl)-1-oxo-1,2-dihydrophthalazin-6-yl)-1-methyl-1H-pyrazol-5-yl)-4-chloro-6-cyclopropoxy-3-fluorobenzonitrile]",–,–,–,"IC50 [2, 5]: 0.8 nM"

# Now from value to molecule, other results behind:
"IC50 [2, 3]","IC50 [2, 4]","IC50 ([1]; Homo sapiens, HCT-116, 240 h)",Structure (SMILES),other results
10 nM,–,–,"Cc1cc(-c2cnn(C)c2-c2c(F)ccc(OC3CC3)c2C#N)cc2c(CN)n[nH]c(=O)c12 (atropisomer, axis not shown; (M)) [Example 16-48, (M)-2-[4-[4-(aminomethyl)-8-methyl-1-oxo-2H-phthalazin-6-yl]-2-methyl-pyrazol-3-yl]-6-(cyclopropoxy)-3-fluoro-benzonitrile]",IC50 (PRMT5/MEP50 complex): 128 nM; IC50 [1]: 19 nM
9 nM,–,–,"Cn1ncc(-c2cc(Cl)c3c(=O)[nH]nc(CN)c3c2)c1-c1c(F)ccc(OC2CC2)c1C#N (atropisomer, axis not shown; (M)) [Example 16-56, (M)-2-[4-[4-(aminomethyl)-8-chloro-1-oxo-2H-phthalazin-6-yl]-2-methyl-pyrazol-3-yl]-6-(cyclopropoxy)-3-fluoro-benzonitrile]",IC50 (PRMT5/MEP50 complex): 113 nM; IC50 [1]: 22 nM
–,25 nM,–,"Cc1c(F)c(-c2c(-c3cc(Cl)c4c(=O)[nH]nc(CN)c4c3)cnn2C)c(C#N)c2ncc(Cl)cc12 (atropisomer, axis not shown; (M)) [Example 16-98, (M)-7-(4-(4-(aminomethyl)-8-chloro-1-oxo-1,2-dihydrophthalazin-6-yl)-1-methyl-1H-pyrazol-5-yl)-3-chloro-6-fluoro-5-methylquinoline-8-carbonitrile]",IC50 (PRMT5/MEP50 complex): 552 nM
79 nM,–,–,"N#Cc1c(OC2CC2)cc(Cl)c(F)c1-c1c(-c2ccc3c(=O)[nH]nc(CN)c3c2)cnn1C(F)(F)F (atropisomer, axis not shown; (M)) [Example 16-120, (M)-2-(4-(4-(aminomethyl)-1-oxo-1,2-dihydrophthalazin-6-yl)-1-(trifluoromethyl)-1H-pyrazol-5-yl)-4-chloro-6-cyclopropoxy-3-fluorobenzonitrile]",IC50 (PRMT5/MEP50 complex): 257 nM
1000 nM,–,–,"N#Cc1c(OC2CC2)cc(Cl)c(F)c1-c1c(-c2ccc3c(=O)[nH]nc(CN)c3c2)cnn1C(F)(F)F (atropisomer, axis not shown; (P)) [Example 16-119, (P)-2-(4-(4-(aminomethyl)-1-oxo-1,2-dihydrophthalazin-6-yl)-1-(trifluoromethyl)-1H-pyrazol-5-yl)-4-chloro-6-cyclopropoxy-3-fluorobenzonitrile]",IC50 (PRMT5/MEP50 complex): 489 nM
–,22 nM,–,"Cc1c(F)c(-c2c(-c3cc(C)c4c(=O)[nH]nc(CN)c4c3)cnn2C)c(C#N)c2ncc(Cl)cc12 (single isomer, unassigned) [Example 16-96, (M)-7-(4-(4-(aminomethyl)-8-methyl-1-oxo-1,2-dihydrophthalazin-6-yl)-1-methyl-1H-pyrazol-5-yl)-3-chloro-6-fluoro-5-methylquinoline-8-carbonitrile]",IC50 (PRMT5/MEP50 complex): 5940 nM
–,538 nM,3870 nM,"CCc1cccc(-c2c(-c3cc4c(CN)n[nH]c(=O)c4cn3)cnn2C)c1C#N [Example 17-1, 2-[4-[1-(aminomethyl)-4-oxo-3H-pyrido[3,4-d]pyridazin-7-yl]-2-methyl-pyrazol-3-yl]-6-ethyl-benzonitrile]",–
–,80 nM,432 nM,"Cn1ncc(-c2ccc3c(=O)[nH]nc(CN)c3c2F)c1-c1ccc2ccccc2c1C#N [Example 17-2, 2-[4-[4-(aminomethyl)-5-fluoro-1-oxo-2H-phthalazin-6-yl]-2-methyl-pyrazol-3-yl]naphthalene-1-carbonitrile]",–
